Experimental data from US7678918B2, “Intermediates for imidazonaphthyridines” (3M Innovative Properties Company, priority 1997, dated 2010).

Columns and labels:
interferon α = test: Interferon (α) Induction in Human Cells (PBM's, 48 hours, A549 bioassay); format: cell-based; set-up: key: +: indicates that the compound induced interferon α at that particular concentration; −: indicates that the compound did not induce interferon α at that particular concentration; ±: indicates that the results were equivocal at that particular concentration; conditions: 48 hours incubation
Protocol: An in vitro human blood cell system was used to assess interferon induction by compounds of the invention. Activity is based on the measurement of interferon secreted into culture media. Interferon is measured by bioassay.
Whole blood was collected by venipuncture into EDTA vacutainer tubes. Peripheral blood mononuclear cells (PBM's) were separated from whole blood by using either LeucoPREP™ Brand Cell Separation Tubes (available from Becton Dickinson) or Ficoll-Paque® solution (available from Pharmacia LKB Biotechnology Inc, Piscataway, N.J.). The PBM's were suspended at 1×10^6/mL in RPMI 1640 media (available from GIBCO, Grand Island, N.Y.) containing 25 mM HEPES (N-2-hydroxyethylpiperazine-N′-2-ethanesulfonic acid) and L-glutamine (1% penicillin-streptomycin solution added) with 10% heat inactivated (56° C. for 30 minutes) autologous serum added. 200 μL portions of PBM suspension were added to 96 well (flat bottom) MicroTest III sterile tissue culture plates.
The compounds were solubilized in ethanol, dimethyl sulfoxide or tissue culture water then diluted with tissue culture water, 0.01N sodium hydroxide or 0.01N hydrochloric acid (The choice of solvent will depend on the chemical characteristics of the compound being tested.). Ethanol or DMSO concentration should not exceed a final concentration of 1% for addition to the culture wells. Compounds were initially tested in a concentration range of from about 0.1 μg/mL to about 5 μg/mL. Compounds which show induction at a concentration of 0.5 μg/mL were then tested in a wider concentration range.
The solution of test compound was added in a volume (less than or equal to 50 μL) to the wells containing 200 μL of diluted whole blood or of PBM's in media. Solvent and/or media was added to control wells (wells with no test compound) and as needed to adjust the final volume of each well to 250 μL. The plates were covered with plastic lids, vortexed gently and then incubated for 48 hours at 37° C. with a 5% carbon dioxide atmosphere.
Following incubation, the plates were covered with parafilm and then centrifuged at 1000 rpm for 10 to 15 minutes at 4° C. in a Damon IEC Model CRU-5000 centrifuge. Media (about 200 μL) was removed from 4 to 8 wells and pooled into 2 mL sterile freezing vials. Samples were maintained at −70° C. until analysis.
Interferon was determined by bioassay using A549 human lung carcinoma cells challenged with encephalomyocarditis. The details of the bioassay method have been described by G. L. Brennan and L. H. Kronenberg in “Automated Bioassay of Interferons in Micro-test Plates”, Biotechniques, June/July 78, 1983, incorporated herein by reference. Briefly stated the method is as follows: interferon dilutions and A549 cells are incubated at 37° C. for 12 to 24 hours. The incubated cells are infected with an inoculum of encephalomyocarditis virus. The infected cells are incubated for an additional period at 37° C. before quantifying for viral cytopathic effect. The viral cytopathic effect is quantified by staining followed by spectrophotometric absorbance measurements. Results are expressed as alpha reference units/mL based on the value obtained for NIH HU IF-L standard. The interferon was identified as essentially all interferon alpha by testing in checkerboard neutralization assays against rabbit anti-human interferon (beta) and goat anti-human interferon (alpha) using A549 cell monolayers challenged with encephalomyocarditis virus.

IFN = test: Cytokine Induction in Human Cells: interferon (IFN) secreted by PBMCs, A549/encephalomyocarditis bioassay; format: cell-based; conditions: 18 to 24 hours; note: call rule not given here
How it was run: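 Human PBMCs from healthy donors at 1.5-2×10^6 cells/mL in RPMI with 10% FBS, exposed to compounds (typically 0.1 to 100 μM, ≤1% DMSO) for 18 to 24 h at 37° C. Secreted IFN measured by A549/encephalomyocarditis virus cytopathic-effect bioassay, in alpha reference units/mL against NIH human leukocyte IFN standard.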

TNF = test: Cytokine Induction in Human Cells: tumor necrosis factor (TNF) secreted by PBMCs, ELISA; format: cell-based; conditions: 18 to 24 hours; note: call rule not given here
How it was run: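 Human donor PBMCs at 1.5-2×10^6 cells/mL in RPMI with 10% FBS were exposed to compound, generally at 0.1 to 100 μM (≤1% DMSO final), for 18 to 24 h at 37 °C. Secreted TNF in supernatant was measured by ELISA and reported as pg/mL.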

Row | melting point [°C] | SMILES | Interferon (α) Induction in Human Cells (interferon α; Dose Concentration 0.01 μg/mL) | Interferon (α) Induction in Human Cells (interferon α; Dose Concentration 0.05 μg/mL) | Interferon (α) Induction in Human Cells (interferon α; Dose Concentration 0.10 μg/mL) | Interferon (α) Induction in Human Cells (interferon α; Dose Concentration 0.50 μg/mL) | Interferon (α) Induction in Human Cells (interferon α; Dose Concentration 1.0 μg/mL) | Interferon (α) Induction in Human Cells (interferon α; Dose Concentration 5.0 μg/mL) | Interferon (α) Induction in Human Cells (interferon α; Dose Concentration 10.0 μg/mL) | Interferon (α) Induction in Human Cells (interferon α; Dose Concentration 25.0 μg/mL) | Interferon (α) Induction in Human Cells (interferon α; Dose Concentration 50.0 μg/mL) | IFN induction (IFN; Dose Concentration 0.1 μM) | IFN induction (IFN; Dose Concentration 1.0 μM) | IFN induction (IFN; Dose Concentration 10.0 μM) | IFN induction (IFN; Dose Concentration 100.0 μM) | TNF induction (TNF; Dose Concentration 0.1 μM) | TNF induction (TNF; Dose Concentration 1.0 μM) | TNF induction (TNF; Dose Concentration 10.0 μM) | TNF induction (TNF; Dose Concentration 100.0 μM)
1 | 231 to 233 | CC(C)Cn1cnc2c(N)nc3c(c21)CCCN3 [Example 10, 6,7,8,9-Tetrahydro-1-(2-methylpropyl)-1H-imidazo[4,5-c][1,8]naphthyridin-4-amine] | − | − | − | − | + | + | + | + | + | + | + | + | + | − | − | − | +
2 | 306 to 307 | CC(C)Cn1cnc2c(N)nc3cnccc3c21 [Example 22, 1-(2-Methylpropyl)-1H-imidazo[4,5-c][1,7]naphthyridin-4-amine] |  |  |  |  | − | − | − | + |  |  | − | − | − |  | − | ± | +
3 | 230 to 231.5 | CC(C)Cn1cnc2c(N)nc3cccnc3c21 [Example 32, 1-(2-Methylpropyl)-1H-imidazo[4,5-c][1,5]naphthyridin-4-amine] | − | − | − | − | + | + | + | + | + |  | + | + | + |  | − | − | −
4 | 222 to 226 | CC(C)Cn1cnc2c(N)nc3c(c21)NCCC3 [Example 33, 6,7,8,9-Tetrahydro-1-(2-methylpropyl)-1H-imidazo[4,5-c][1,5]naphthyridin-4-amine] | − | − | − | − | − | + | + | + | + |  | + | + | + |  | − | − | −

Further lines, the compound ahead of its results:

Row | SMILES | melting point [°C] | Interferon (α) Induction in Human Cells (interferon α; Dose Concentration 0.01 μg/mL) | Interferon (α) Induction in Human Cells (interferon α; Dose Concentration 0.05 μg/mL) | Interferon (α) Induction in Human Cells (interferon α; Dose Concentration 0.10 μg/mL) | Interferon (α) Induction in Human Cells (interferon α; Dose Concentration 0.50 μg/mL) | Interferon (α) Induction in Human Cells (interferon α; Dose Concentration 1.0 μg/mL) | Interferon (α) Induction in Human Cells (interferon α; Dose Concentration 5.0 μg/mL) | Interferon (α) Induction in Human Cells (interferon α; Dose Concentration 10.0 μg/mL) | Interferon (α) Induction in Human Cells (interferon α; Dose Concentration 25.0 μg/mL) | Interferon (α) Induction in Human Cells (interferon α; Dose Concentration 50.0 μg/mL) | IFN induction (IFN; Dose Concentration 0.1 μM) | IFN induction (IFN; Dose Concentration 1.0 μM) | IFN induction (IFN; Dose Concentration 10.0 μM) | IFN induction (IFN; Dose Concentration 100.0 μM) | TNF induction (TNF; Dose Concentration 0.1 μM) | TNF induction (TNF; Dose Concentration 1.0 μM) | TNF induction (TNF; Dose Concentration 10.0 μM) | TNF induction (TNF; Dose Concentration 100.0 μM)
5 | CC(C)Cn1cnc2c(N)nc3c(c21)CCNC3 [Example 23, 6,7,8,9-Tetrahydro-1-(2-methylpropyl)-1H-imidazo[4,5-c][1,7]naphthyridin-4-amine] | 220 to 223 |  |  |  |  | − | − | − | − |  |  | + | + | − |  | − | ± | −
6 | Cc1nc2c(N)nc3cnccc3c2n1CC(C)C [Example 25, 2-Methyl-1-(2-methylpropyl)-1H-imidazo[4,5-c][1,7]naphthyridin-4-amine] | 322 to 324 | − | − | − | − | − | + | + | + |  |  | − | + | + |  | − | ± | −
7 | Cc1nc2c(N)nc3c(c2n1CC(C)C)CCNC3 [Example 26, 6,7,8,9-Tetrahydro-2-methyl-1-(2-methylpropyl)-1H-imidazo[4,5-c][1,7]naphthyridin-4-amine] | 226 to 230 | − | − | − | − | − | ± | + | + |  |  | + | − | + |  | + | ± | −
8 | CCCCc1nc2c(N)nc3cnccc3c2n1CC(C)C [Example 27, 2-Butyl-1-(2-methylpropyl)-1H-imidazo[4,5-c][1,7]naphthyridin-4-amine] | 213 to 214 | − | − | + | + | + | + | + | + |  |  | + | + | + |  | + | + | +
9 | CCCCc1nc2c(N)nc3c(c2n1CC(C)C)CCNC3 [Example 28, 2-Butyl-6,7,8,9-tetrahydro-1-(2-methylpropyl)-1H-imidazo[4,5-c][1,7]naphthyridin-4-amine] | 164 to 166 | − | ± | + | + | + | + | + | + |  |  | + | + | + |  | − | + | +
